Reference: publication PMC10321483 (Chemical Science, 2023)

Target: T1, LdtMt2-ebselen complex (Mycobacterium tuberculosis, UniProt I6Y9J2)
T1 construct: made in house; host or cells: E. coli
Assay: SPE-MS active-site selectivity assay with ebselen-preincubated LdtMt2
Format: binding
Conditions: inhibitor 100 µM, 24 h
Method: LdtMt2 contains only a single cysteine residue (Cys354). However, as several identified electrophiles are able to react with residues other than cysteine,[30,31] it was assessed whether covalent modification of LdtMt2 by the inhibitors is related to reaction with Cys354. […] Apparently complete LdtMt2 modification by a single molecule of ebselen (+274 Da) was observed. Inhibitors 1–21 were then added to the ebselen derived LdtMt2 complex (Fig. S11 ^†).
Figure S11. Protein observed SPE-MS based active -site selectivity assay s. LdtMt2 (1 µM) was 153 preincubated with ebselen (10 µM, a known Ldt Mt2 inhibitor3, which reacts with the nucleophilic 154 Cys354) for 1 h in 50 mM Tris, pH 7.5 , prior to addition of inhibitors 1-15 (100 µM). Samples were 155 analysed after an additional 24 h incubation at room temperature. The spectrum in blue corresponds 156 to LdtMt2 reacted with ebselen. The spectrum in green corresponds to LdtMt2 reacted with the specified 157 inhibitor, following preincubation with ebselen. The spectrum in purple corresponds to LdtMt2 reacted 158 with the specified inhibitor. Deconvoluted spectra, obtained using the maximum entropy algorithm in 159 the MassHunter Workstation Qualitative Analysis B.07.00 program (Agilent), are shown. 160
(1 picture or pasted object on this page, not shown here)

T1 sequence (I6Y9J2 56-408, one chain of several): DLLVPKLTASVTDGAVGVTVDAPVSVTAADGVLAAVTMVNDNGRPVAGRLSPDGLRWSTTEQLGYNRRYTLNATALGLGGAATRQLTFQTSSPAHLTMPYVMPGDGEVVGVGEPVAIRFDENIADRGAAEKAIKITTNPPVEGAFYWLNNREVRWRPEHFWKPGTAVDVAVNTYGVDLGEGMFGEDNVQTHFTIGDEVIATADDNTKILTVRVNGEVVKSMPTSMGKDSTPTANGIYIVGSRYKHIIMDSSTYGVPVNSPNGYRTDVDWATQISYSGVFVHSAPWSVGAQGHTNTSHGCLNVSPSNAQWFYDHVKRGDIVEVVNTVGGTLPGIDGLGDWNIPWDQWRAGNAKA

| SMILES | reaction with the LdtMt2-ebselen complex (Cys354 unavailable) |
| --- | --- |
| CC(C)(C)OC(=O)Nc1ccc(N2C(=O)C=CC2=O)cc1 [Compound 6] | observed to react with the LdtMt2-ebselen complex |
| CCOc1ccc(CN2C(=O)C(=O)c3cc(Br)cc(C)c32)cc1OC [Compound 16] | observed to react with the LdtMt2-ebselen complex |
| COc1ccc(CN2C(=O)C(=O)c3cc(Br)cc(C)c32)cc1OC [Compound 17] | observed to react with the LdtMt2-ebselen complex |
